Experimental data as given in patent US10858367B2, “Compounds” (GLAXOSMITHKLINE INTELLECTUAL PROPERTY DEVELOPMENT LIMITED, priority 2017, dated 2020).

Molecular target: T1, LRRK2 Ser935 phosphorylation in SH-SY5Y cells over-expressing recombinant full length LRRK2 (Homo sapiens, UniProt Q5S007)
T1 construct: A BacMam virus expressing full length recombinant LRRK2 was purchased from Invitrogen; host or cells: SH-SY5Y human neuroblastoma cells transduced with BacMam LRRK2 virus
Assay: Recombinant cellular LRRK2 AlphaScreen assay
Type: cell-based
Details: human neuroblastoma SH-SY5Y cells, BacMam full length LRRK2, 60 minutes with compound, read-out: pIC50 in the recombinant cellular LRRK2 AlphaScreen assay (converted)
From the text: b. Recombinant Cellular LRRK2 AlphaScreen Assay
To determine the activity of compounds against LRRK2 kinase activity in cells, the observed LRRK2 kinase-dependent modulation of LRRK2 Ser 935 phosphorylation (Dzamko et al., 2010, Biochem. J. 430: 405-413) was utilized to develop a quantitative 384 well plate-based immunoassay of LRRK2 Ser935 phosphorylation in the human neuroblastoma cell line SH-SY5Y, engineered to over-express recombinant full length LRRK2 protein.
A BacMam virus expressing full length recombinant LRRK2 was purchased from Invitrogen and amplified by inoculation of SF-9 cells at MOI 0.3 for 4-5 days in Sf-900 III SFM medium supplemented with 3% fetal bovine serum. Infected cell cultures were then centrifuged at 2000 g for 20 minutes, viral supernatant titer determined by anti-gp64 plaque assay and stored at 4° C.
Affinity-purified anti-phospho LRRK2 Ser935 sheep polyclonal antibody (Dzamko et al., 2010, Biochem. J. 430: 405-413) was biotinylated by standard methods (PerkinElmer). Anti-LRRK2 rabbit polyclonal antibody was purchased from Novus Biologicals. AlphaScreen Protein A IgG Kit (including acceptor and donor beads) was purchased from Perkin Elmer.
SH-SY5Y cells were grown in DMEM/F12 medium with 10% dialysed fetal bovine serum and harvested by treatment with 0.5% trypsin-EDTA for 5 minutes at 37° C. followed by centrifugation at 1000 rpm for 4 minutes. The cell pellet was resuspended in Opti-MEM reduced serum media (Invitrogen) at 200,000 cells/ml and mixed with the BacMam LRRK2 virus at MOI=50. 50 μl cell solutions were then dispensed to each well of a 384-well plate and incubated at 37° C., 5% CO2 for 24 hours.
Serial dilutions of test compounds were prepared in Opti-MEM reduced serum media (Invitrogen) and 5.6 ul transferred from compound plate to cell assay plate to achieve a top final assay concentration of 10 uM. DMSO was used in certain wells as controls. Cells were incubated at 37° C., 5% CO2 for 60 minutes. The medium was then removed and cells lysed by addition of 20 ul cell lysis buffer (Cell Signaling Technology) and incubation at 4° C. for 20 minutes. 10 ul of antibody/acceptor bead mix [(1/1000 biotinylated-pS935 LRRK2 antibody, 1/1000 total-LRRK2 antibody, 1/100 Acceptor beads in AlphaScreen detection buffer (25 mM Hepes (pH 7.4), 0.5% Triton X-100, 1 mg/ml Dextran 500 and 0.1% BSA)] was then added to each well and plates incubated for 2 hours at ambient temperature in the dark. 10 μl of donor beads solution (1/33.3 donor beads in AlphaScreen detection buffer) was then added to each well. Following incubation for a further 2 hours at ambient temperature in the dark, plates were read on an EnVision™ plate reader at emission 520-620 nm with excitation 680 nm. Dose response curve data was based on sigmoidal dose-response model.

T1 sequence (Q5S007 whole entry): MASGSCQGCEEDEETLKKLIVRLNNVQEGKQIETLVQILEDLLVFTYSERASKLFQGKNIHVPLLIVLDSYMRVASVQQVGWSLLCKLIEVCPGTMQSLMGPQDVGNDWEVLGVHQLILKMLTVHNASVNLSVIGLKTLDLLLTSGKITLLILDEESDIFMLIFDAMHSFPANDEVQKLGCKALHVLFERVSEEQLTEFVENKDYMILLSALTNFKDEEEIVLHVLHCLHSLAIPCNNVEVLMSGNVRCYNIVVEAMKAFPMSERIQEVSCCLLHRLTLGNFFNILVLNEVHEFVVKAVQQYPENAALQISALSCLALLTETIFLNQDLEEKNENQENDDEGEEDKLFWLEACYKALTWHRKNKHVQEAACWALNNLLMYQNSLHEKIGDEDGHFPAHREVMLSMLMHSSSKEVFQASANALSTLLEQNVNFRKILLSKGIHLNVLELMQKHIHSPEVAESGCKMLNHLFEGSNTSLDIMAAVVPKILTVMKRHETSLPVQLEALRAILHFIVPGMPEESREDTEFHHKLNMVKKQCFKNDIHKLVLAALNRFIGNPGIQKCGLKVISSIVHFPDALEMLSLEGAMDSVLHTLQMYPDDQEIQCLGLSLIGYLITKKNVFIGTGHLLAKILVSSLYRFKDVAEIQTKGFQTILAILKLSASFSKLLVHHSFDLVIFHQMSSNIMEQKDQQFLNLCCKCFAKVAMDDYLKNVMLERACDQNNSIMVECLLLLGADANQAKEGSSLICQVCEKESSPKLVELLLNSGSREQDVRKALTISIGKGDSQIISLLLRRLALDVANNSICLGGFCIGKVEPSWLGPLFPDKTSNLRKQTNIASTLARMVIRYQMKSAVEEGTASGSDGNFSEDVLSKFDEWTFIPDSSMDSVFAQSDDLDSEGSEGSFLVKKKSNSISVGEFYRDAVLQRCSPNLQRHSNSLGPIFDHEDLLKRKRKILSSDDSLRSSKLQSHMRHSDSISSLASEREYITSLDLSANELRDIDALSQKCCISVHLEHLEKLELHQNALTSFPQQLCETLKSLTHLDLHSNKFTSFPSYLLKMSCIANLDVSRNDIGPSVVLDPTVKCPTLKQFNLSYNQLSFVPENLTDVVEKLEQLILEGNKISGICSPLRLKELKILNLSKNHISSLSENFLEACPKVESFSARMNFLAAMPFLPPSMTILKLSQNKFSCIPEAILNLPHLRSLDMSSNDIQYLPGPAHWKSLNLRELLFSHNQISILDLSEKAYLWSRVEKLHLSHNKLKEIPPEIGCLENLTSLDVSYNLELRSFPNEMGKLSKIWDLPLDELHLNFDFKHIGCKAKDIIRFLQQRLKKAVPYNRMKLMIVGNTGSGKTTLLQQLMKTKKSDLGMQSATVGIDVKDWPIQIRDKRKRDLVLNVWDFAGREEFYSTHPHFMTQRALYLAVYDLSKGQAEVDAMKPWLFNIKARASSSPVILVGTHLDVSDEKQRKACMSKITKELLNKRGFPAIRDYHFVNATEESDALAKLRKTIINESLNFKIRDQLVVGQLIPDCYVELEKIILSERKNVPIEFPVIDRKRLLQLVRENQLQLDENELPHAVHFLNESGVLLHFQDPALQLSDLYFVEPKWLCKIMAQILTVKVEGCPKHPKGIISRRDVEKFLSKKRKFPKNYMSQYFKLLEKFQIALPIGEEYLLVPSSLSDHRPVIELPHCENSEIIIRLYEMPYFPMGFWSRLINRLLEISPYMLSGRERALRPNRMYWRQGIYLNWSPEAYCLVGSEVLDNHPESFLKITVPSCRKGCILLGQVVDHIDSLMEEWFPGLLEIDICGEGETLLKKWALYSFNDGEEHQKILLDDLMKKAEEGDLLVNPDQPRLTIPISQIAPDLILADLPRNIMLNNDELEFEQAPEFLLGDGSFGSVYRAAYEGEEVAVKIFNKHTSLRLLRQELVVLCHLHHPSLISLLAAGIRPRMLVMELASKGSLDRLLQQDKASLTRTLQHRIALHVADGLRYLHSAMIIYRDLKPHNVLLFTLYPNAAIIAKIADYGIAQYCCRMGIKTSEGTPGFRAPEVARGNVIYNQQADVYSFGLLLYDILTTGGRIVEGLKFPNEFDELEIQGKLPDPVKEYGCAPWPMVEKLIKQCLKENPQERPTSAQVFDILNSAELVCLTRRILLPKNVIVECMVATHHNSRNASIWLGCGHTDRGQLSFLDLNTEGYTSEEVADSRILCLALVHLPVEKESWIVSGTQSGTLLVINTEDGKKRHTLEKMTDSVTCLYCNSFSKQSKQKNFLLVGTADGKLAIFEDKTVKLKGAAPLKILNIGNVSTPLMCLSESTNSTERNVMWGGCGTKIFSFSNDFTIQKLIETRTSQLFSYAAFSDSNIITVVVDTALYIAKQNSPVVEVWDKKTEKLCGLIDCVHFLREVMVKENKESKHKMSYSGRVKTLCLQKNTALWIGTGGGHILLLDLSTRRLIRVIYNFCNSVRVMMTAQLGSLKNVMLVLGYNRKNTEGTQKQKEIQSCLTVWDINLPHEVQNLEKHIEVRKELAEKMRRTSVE

Structure (SMILES) | IC50
COCCN1CCC(c2cc3c(cnn3-c3cc(N4C[C@H]5C[C@@H]4CO5)nc(OC)n3)cc2C)CC1 [Example E35, (1R,4R)-5-(2-methoxy-6-(6-(1-(2-methoxyethyl)piperidin-4-yl)-5-methyl-1H-indazol-1-yl)pyrimidin-4-yl)-2-oxa-5-azabicyclo[2.2.1]heptane] | ≤ 1000 nM
COCCN1CCC(c2cc3c(cnn3-c3cc(N4C[C@@H]5C[C@H]4CO5)nc(OC)n3)cc2C)CC1 [Example E36, (1S,4S)-5-(2-methoxy-6-(6-(1-(2-methoxyethyl)piperidin-4-yl)-5-methyl-1H-indazol-1-yl)pyrimidin-4-yl)-2-oxa-5-azabicyclo[2.2.1]heptane] | ≤ 1000 nM
COc1nc(N2C[C@H]3C[C@@H]2CO3)cc(-n2ncc3cc(C)c(C4CCN(CCF)CC4)cc32)n1 [Example E37, (1R,4R)-5-(6-(6-(1-(2-fluoroethyl)piperidin-4-yl)-5-methyl-1H-indazol-1-yl)-2-methoxypyrimidin-4-yl)-2-oxa-5-azabicyclo[2.2.1]heptane] | ≤ 1000 nM
COc1nc(N2C[C@@H]3C[C@H]2CO3)cc(-n2ncc3cc(C)c(C4CCN(CCF)CC4)cc32)n1 [Example E38, (1S,4S)-5-(6-(6-(1-(2-fluoroethyl)piperidin-4-yl)-5-methyl-1H-indazol-1-yl)-2-methoxypyrimidin-4-yl)-2-oxa-5-azabicyclo[2.2.1]heptane] | ≤ 1000 nM
Cc1nc(N2C[C@H]3C[C@@H]2CO3)cc(-n2ncc3cc(C)c(C4CCN(C5COC5)CC4)cc32)n1 [Example E39, (1R,4R)-5-(2-methyl-6-(5-methyl-6-(1-(oxetan-3-yl)piperidin-4-yl)-1H-indazol-1-yl)pyrimidin-4-yl)-2-oxa-5-azabicyclo[2.2.1]heptane] | ≤ 1000 nM
Cc1nc(N2C[C@@H]3C[C@H]2CO3)cc(-n2ncc3cc(C)c(C4CCN(C5COC5)CC4)cc32)n1 [Example E40, (1S,4S)-5-(2-methyl-6-(5-methyl-6-(1-(oxetan-3-yl)piperidin-4-yl)-1H-indazol-1-yl)pyrimidin-4-yl)-2-oxa-5-azabicyclo[2.2.1]heptane] | ≤ 1000 nM
COc1nc(N2CC3CCC(C2)O3)cc(-n2ncc3cc(C)c(C4CCN(C5COC5)CC4)cc32)n1 [Example E41, 3-(2-Methoxy-6-(5-methyl-6-(1-(oxetan-3-yl)piperidin-4-yl)-1H-indazol-1-yl)pyrimidin-4-yl)-8-oxa-3-azabicyclo[3.2.1]octane] | ≤ 1000 nM
Cc1nc(N2CC3CCC(C2)O3)cc(-n2ncc3cc(C)c(C4CCN(C5COC5)CC4)cc32)n1 [Example E42, 3-(2-Methyl-6-(5-methyl-6-(1-(oxetan-3-yl)piperidin-4-yl)-1H-indazol-1-yl)pyrimidin-4-yl)-8-oxa-3-azabicyclo[3.2.1]octane] | ≤ 1000 nM
COc1nc(N2CC3CC(C2)O3)cc(-n2ncc3cc(C)c(C4CCN(C5COC5)CC4)cc32)n1 [Example E43, 3-(2-Methoxy-6-(5-methyl-6-(1-(oxetan-3-yl)piperidin-4-yl)-1H-indazol-1-yl)pyrimidin-4-yl)-6-oxa-3-azabicyclo[3.1.1]heptane] | ≤ 1000 nM
Cc1nc(N2CC3CC(C2)O3)cc(-n2ncc3cc(C)c(C4CCN(C5COC5)CC4)cc32)n1 [Example E44, 3-(2-Methyl-6-(5-methyl-6-(1-(oxetan-3-yl)piperidin-4-yl)-1H-indazol-1-yl)pyrimidin-4-yl)-6-oxa-3-azabicyclo[3.1.1]heptane] | ≤ 1000 nM
Cc1nc(N2C3CCC2COC3)cc(-n2ncc3cc(C)c(C4CCN(C5COC5)CC4)cc32)n1 [Example E45, 8-(2-methyl-6-(5-methyl-6-(1-(oxetan-3-yl)piperidin-4-yl)-1H-indazol-1-yl)pyrimidin-4-yl)-3-oxa-8-azabicyclo[3.2.1]octane] | ≤ 1000 nM
Cc1nc(N2C3COCC2COC3)cc(-n2ncc3cc(C)c(C4CCN(C5COC5)CC4)cc32)n1 [Example E46, 9-(2-methyl-6-(5-methyl-6-(1-(oxetan-3-yl)piperidin-4-yl)-1H-indazol-1-yl)pyrimidin-4-yl)-3,7-dioxa-9-azabicyclo[3.3.1]nonane] | ≤ 1000 nM
Cc1nc(N2C[C@H]3C[C@@H]2CO3)cc(-n2ncc3cc(C)c(C4CCN(CCO)CC4)cc32)n1 [Example E51, 2-(4-(1-(6-((1R,4R)-2-oxa-5-azabicyclo[2.2.1]heptan-5-yl)-2-methylpyrimidin-4-yl)-5-methyl-1H-indazol-6-yl)piperidin-1-yl)ethanol] | ≤ 1000 nM
Cc1nc(N2C[C@@H]3C[C@H]2CO3)cc(-n2ncc3cc(C)c(C4CCN(CCO)CC4)cc32)n1 [Example E52, 2-(4-(1-(6-((1S,4S)-2-oxa-5-azabicyclo[2.2.1]heptan-5-yl)-2-methylpyrimidin-4-yl)-5-methyl-1H-indazol-6-yl)piperidin-1-yl)ethanol] | ≤ 1000 nM
Cc1nc(N2C[C@H]3C[C@@H]2CO3)cc(-n2ncc3cc(C)c(C4CCN(C(=O)CO)CC4)cc32)n1 [Example E53, 1-(4-(1-(6-((1R,4R)-2-oxa-5-azabicyclo[2.2.1]heptan-5-yl)-2-methylpyrimidin-4-yl)-5-methyl-1H-indazol-6-yl)piperidin-1-yl)-2-hydroxyethanone] | ≤ 1000 nM
Cc1nc(N2C[C@@H]3C[C@H]2CO3)cc(-n2ncc3cc(C)c(C4CCN(C(=O)CO)CC4)cc32)n1 [Example E54, 1-(4-(1-(6-((1S,4S)-2-oxa-5-azabicyclo[2.2.1]heptan-5-yl)-2-methylpyrimidin-4-yl)-5-methyl-1H-indazol-6-yl)piperidin-1-yl)-2-hydroxyethanone] | ≤ 1000 nM
Cc1nc(N2C[C@H]3C[C@@H]2CO3)cc(-n2ncc3cc(C)c(C4CCN(C5COC5)CC4C)cc32)n1 (stereo partly drawn) [Example E55, (1R,4R)-5-(2-methyl-6-(5-methyl-6-(3-methyl-1-(oxetan-3-yl)piperidin-4-yl)-1H-indazol-1-yl)pyrimidin-4-yl)-2-oxa-5-azabicyclo[2.2.1]heptane] | ≤ 1000 nM
[2H]C1(N2CCC(c3cc4c(cnn4-c4cc(N5C[C@H]6C[C@@H]5CO6)nc(OC)n4)cc3C)CC2)COC1 [Example E56, (1R,4R)-5-(6-(6-(1-(3-deuterooxetan-3-yl)piperidin-4-yl)-5-methyl-1H-indazol-1-yl)-2-methoxypyrimidin-4-yl)-2-oxa-5-azabicyclo[2.2.1]heptane] | ≤ 10 nM
[2H]C1(N2CCC(c3cc4c(cnn4-c4cc(N5C[C@@H]6C[C@H]5CO6)nc(OC)n4)cc3C)CC2)COC1 [Example E57, (1S,4S)-5-(6-(6-(1-(3-deuterooxetan-3-yl)piperidin-4-yl)-5-methyl-1H-indazol-1-yl)-2-methoxypyrimidin-4-yl)-2-oxa-5-azabicyclo[2.2.1]heptane] | ≤ 1000 nM
COc1nc(N2C[C@H]3C[C@@H]2CO3)cc(-n2ncc3cc(C)c(C4CCNCC4)cc32)n1 [Example E58, (1R,4R)-5-(2-methoxy-6-(5-methyl-6-(piperidin-4-yl)-1H-indazol-1-yl)pyrimidin-4-yl)-2-oxa-5-azabicyclo[2.2.1]heptane] | ≤ 1000 nM
COc1nc(N2C[C@@H]3C[C@H]2CO3)cc(-n2ncc3cc(C)c(C4CCNCC4)cc32)n1 [Example E59, (1S,4S)-5-(2-methoxy-6-(5-methyl-6-(piperidin-4-yl)-1H-indazol-1-yl)pyrimidin-4-yl)-2-oxa-5-azabicyclo[2.2.1]heptane] | ≤ 1000 nM
COc1nc(N2CC3CC(C2)O3)cc(-n2ncc3cc(C)c(C4CCNCC4)cc32)n1 [Example E60, 3-(2-methoxy-6-(5-methyl-6-(piperidin-4-yl)-1H-indazol-1-yl)pyrimidin-4-yl)-6-oxa-3-azabicyclo[3.1.1]heptane 2,2,2-trifluoroacetate] | ≤ 1000 nM
Cc1nc(N2CC3CC(C2)O3)cc(-n2ncc3cc(C)c(C4CCNCC4)cc32)n1 [Example E61, 3-(2-methyl-6-(5-methyl-6-(piperidin-4-yl)-1H-indazol-1-yl)pyrimidin-4-yl)-6-oxa-3-azabicyclo[3.1.1]heptane 2,2,2-trifluoroacetate] | ≤ 1000 nM
